Data published in patent US8415469B2, “Compounds and methods for kinase modulation, and indications therefor” (Plexxikon Inc., priority 2005, dated 2013).

Assays:
Format in all cases: biochemical
Stk6 = target: T1, Stk6 (Homo sapiens, UniProt O14965); experiment: Z'-Lyte FRET kinase assay (Invitrogen), Stk6; conditions: read-out: IC50, activity toward kinase Stk6
T1 construct: purchased Invitrogen (Carlsbad, Calif.), screening service
T1 sequence (O14965 1-403): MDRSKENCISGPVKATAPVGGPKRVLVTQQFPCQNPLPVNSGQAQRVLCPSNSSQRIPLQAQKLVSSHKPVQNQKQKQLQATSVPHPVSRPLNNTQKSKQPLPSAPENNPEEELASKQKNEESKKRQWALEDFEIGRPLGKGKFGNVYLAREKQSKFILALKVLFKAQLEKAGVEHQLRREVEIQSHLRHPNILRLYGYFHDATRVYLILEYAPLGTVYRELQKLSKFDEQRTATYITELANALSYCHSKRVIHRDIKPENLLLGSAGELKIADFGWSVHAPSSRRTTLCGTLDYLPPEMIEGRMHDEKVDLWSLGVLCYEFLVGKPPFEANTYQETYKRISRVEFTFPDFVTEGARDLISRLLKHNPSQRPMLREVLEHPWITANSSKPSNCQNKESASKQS

Src = target: T2, Src (Homo sapiens, UniProt P12931); experiment: AlphaScreen kinase assay, Src; conditions: read-out: IC50, activity toward kinase Src
T2 construct: P1144. pET-N6 BI-PTP SRC V86-L536-X; made in house

c-Raf-1 = target: T3, c-Raf-1 (Homo sapiens, UniProt P04049); experiment: AlphaScreen kinase assay, c-Raf-1; conditions: read-out: IC50, activity toward kinase c-Raf-1
T3 construct: purchased Upstate Biotechnology

MAP2K1 = target: T4, MAP2K1 (Homo sapiens, UniProt Q02750); experiment: Z'-Lyte FRET kinase assay (Invitrogen), MAP2K1; conditions: read-out: IC50, activity toward kinase MAP2K1
T4 construct: purchased Invitrogen (assay run by Invitrogen)

Akt3 = Akt3 (Homo sapiens, UniProt Q9Y243); experiment: AlphaScreen kinase assay, Akt3; conditions: read-out: IC50, activity toward kinase Akt3
Summary of the method: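 Inhibition reads as diminished acceptor emission, since unphosphorylated peptide fails to bridge antibody acceptor beads and streptavidin donor beads. Titration: eight points, 1:3 steps, stocks at 20 mM in DMSO.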

T2 sequence (P12931 with tags, fused parts or gaps): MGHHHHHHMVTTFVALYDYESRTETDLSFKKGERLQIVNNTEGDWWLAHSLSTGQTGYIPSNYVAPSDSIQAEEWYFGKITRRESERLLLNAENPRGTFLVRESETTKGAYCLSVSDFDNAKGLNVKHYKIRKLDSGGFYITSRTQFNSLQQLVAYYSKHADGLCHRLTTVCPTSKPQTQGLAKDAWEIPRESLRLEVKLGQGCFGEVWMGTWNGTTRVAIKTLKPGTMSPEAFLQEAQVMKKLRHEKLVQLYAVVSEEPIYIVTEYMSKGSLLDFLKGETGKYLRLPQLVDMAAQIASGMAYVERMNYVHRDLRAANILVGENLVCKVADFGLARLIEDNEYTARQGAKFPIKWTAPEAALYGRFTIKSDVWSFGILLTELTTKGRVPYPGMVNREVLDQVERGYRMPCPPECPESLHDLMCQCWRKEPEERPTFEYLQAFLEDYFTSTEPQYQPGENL
T4 sequence (Q02750 whole entry): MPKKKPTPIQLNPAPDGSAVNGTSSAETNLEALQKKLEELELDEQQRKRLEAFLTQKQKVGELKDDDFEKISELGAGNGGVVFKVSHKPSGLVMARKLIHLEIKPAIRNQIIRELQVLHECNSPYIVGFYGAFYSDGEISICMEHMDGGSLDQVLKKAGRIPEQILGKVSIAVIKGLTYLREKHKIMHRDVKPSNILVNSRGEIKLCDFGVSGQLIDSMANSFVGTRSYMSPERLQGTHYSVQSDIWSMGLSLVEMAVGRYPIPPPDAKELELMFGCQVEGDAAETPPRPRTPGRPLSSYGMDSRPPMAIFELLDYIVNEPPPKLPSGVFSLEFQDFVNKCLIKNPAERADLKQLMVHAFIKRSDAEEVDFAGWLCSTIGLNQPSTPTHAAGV
T3 sequence (P04049 whole entry): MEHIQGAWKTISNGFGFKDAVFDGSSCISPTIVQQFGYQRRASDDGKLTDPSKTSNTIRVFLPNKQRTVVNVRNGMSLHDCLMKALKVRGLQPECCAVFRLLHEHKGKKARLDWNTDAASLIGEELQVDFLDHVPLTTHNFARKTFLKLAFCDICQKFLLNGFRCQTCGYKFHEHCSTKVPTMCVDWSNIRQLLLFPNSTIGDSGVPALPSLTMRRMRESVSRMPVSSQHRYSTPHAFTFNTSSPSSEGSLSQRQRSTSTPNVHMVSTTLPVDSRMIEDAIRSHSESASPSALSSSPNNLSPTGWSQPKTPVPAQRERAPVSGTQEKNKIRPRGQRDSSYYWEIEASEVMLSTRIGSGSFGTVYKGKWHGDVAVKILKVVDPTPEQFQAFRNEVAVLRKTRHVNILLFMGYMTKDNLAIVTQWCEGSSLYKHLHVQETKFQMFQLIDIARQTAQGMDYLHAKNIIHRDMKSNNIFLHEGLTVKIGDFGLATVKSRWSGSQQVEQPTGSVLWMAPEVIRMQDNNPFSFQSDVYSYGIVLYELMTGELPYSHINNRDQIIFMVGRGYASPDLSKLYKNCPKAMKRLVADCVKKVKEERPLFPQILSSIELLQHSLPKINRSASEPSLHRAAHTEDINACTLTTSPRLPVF
Akt3, sequence (Q9Y243 whole entry): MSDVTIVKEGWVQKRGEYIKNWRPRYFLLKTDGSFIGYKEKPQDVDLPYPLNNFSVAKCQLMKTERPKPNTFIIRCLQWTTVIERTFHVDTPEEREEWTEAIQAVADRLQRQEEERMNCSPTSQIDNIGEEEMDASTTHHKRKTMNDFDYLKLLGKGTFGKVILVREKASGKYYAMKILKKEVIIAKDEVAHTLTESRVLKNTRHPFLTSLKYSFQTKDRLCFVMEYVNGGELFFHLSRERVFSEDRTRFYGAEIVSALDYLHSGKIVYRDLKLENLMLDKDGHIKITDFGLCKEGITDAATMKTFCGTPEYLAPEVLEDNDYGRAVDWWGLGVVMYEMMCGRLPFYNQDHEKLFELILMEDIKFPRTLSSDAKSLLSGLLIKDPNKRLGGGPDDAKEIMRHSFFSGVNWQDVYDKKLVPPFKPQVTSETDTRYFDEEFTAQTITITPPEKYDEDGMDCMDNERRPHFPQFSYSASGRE

Row | SMILES | IC50 (Stk6) [µM] | IC50 (Src) [µM] | IC50 (c-Raf-1) [µM] | IC50 (MAP2K1) [µM] | IC50 (Akt3) [µM]
1 | Oc1cccc(Cc2c[nH]c3ncc(-c4ccsc4)cc23)c1 [Compound P-0056] | ≤ 10 | – | – | – | –
2 | CCCC(=O)Nc1ccc(F)c(Cc2c[nH]c3ncc(-c4cccnc4)cc23)c1F [Compound P-1280] | ≤ 10 | ≤ 10 | – | – | –
3 | CCCS(=O)(=O)Nc1ccc(F)c(C(=O)c2c[nH]c3ncc(-c4ccccc4)cc23)c1F [Compound P-0636, Propane-1-sulfonic acid [2,4-difluoro-3-(5-phenyl-1H-pyrrolo[2,3-b]pyridine-3-carbonyl)-phenyl]-amide] | – | – | ≤ 10 | – | –
4 | O=C(c1cc(O)ccc1F)c1c[nH]c2ncc(-c3ccccc3)cc12 [Compound P-0045] | ≤ 10 | ≤ 10 | ≤ 10 | – | –
5 | Oc1cccc(Cc2c[nH]c3ncc(-c4cccs4)cc23)c1F [Compound P-0052, 2-Fluoro-3-(5-thiophen-2-yl-1H-pyrrolo[2,3-b]pyridin-3-ylmethyl)-phenol] | ≤ 10 | – | ≤ 10 | – | –
6 | Cc1c(NS(C)(=O)=O)cccc1C(=O)c1c[nH]c2ncc(-c3ccccc3)cc12 [Compound P-0082, N-[2-Methyl-3-(5-phenyl-1H-pyrrolo[2,3-b]pyridine-3-carbonyl)-phenyl]-methanesulfonamide] | ≤ 10 | ≤ 10 | ≤ 10 | – | –
7 | Cc1ccc(F)cc1C(=O)c1c[nH]c2ncc(-c3cccc(N)c3)cc12 [Compound P-0040] | ≤ 10 | ≤ 10 | – | – | –
8 | O=C(c1cc(O)ccc1F)c1c[nH]c2ncc(Br)cc12 [Compound P-0068, (5-Bromo-1H-pyrrolo[2,3-b]pyridin-3-yl)-(2-fluoro-5-hydroxy-phenyl)-methanone] | – | ≤ 10 | – | – | –
9 | Nc1ccnc2[nH]cc(C(=O)c3ccccc3)c12 [Compound P-0029] | ≤ 10 | – | – | ≤ 10 | –
10 | CCCS(=O)(=O)Nc1ccc(F)c(C(=O)c2c[nH]c3ncccc23)c1F [Compound P-0007, Propane-1-sulfonic acid [2,4-difluoro-3-(1H-pyrrolo[2,3-b]pyridine-3-carbonyl)-phenyl]-amide] | ≤ 10 | ≤ 10 | ≤ 10 | – | –
11 | Oc1ccc(F)c(Cc2c[nH]c3ncc(-c4cccnc4)cc23)c1F [Compound P-0078, 2,4-difluoro-3-(5-pyridin-3-yl-1H-pyrrolo[2,3-b]pyridin-3-ylmethyl)-phenol] | – | ≤ 10 | ≤ 10 | – | –
12 | Oc1ccc(F)c(Cc2c[nH]c3ncc(Br)cc23)c1F [Compound P-0122, 3-(5-Bromo-1H-pyrrolo[2,3-b]pyridin-3-ylmethyl)-2,4-difluoro-phenol] | – | – | ≤ 10 | – | ≤ 10
13 | Fc1cc(F)cc(-c2ccnc3[nH]cc(Sc4ccccn4)c23)c1 [Compound P-0106] | ≤ 10 | – | – | – | –
14 | O=C(c1cccc(O)c1)c1c[nH]c2ncc(-c3cccnc3)cc12 [Compound P-0048] | – | – | – | – | ≤ 10
15 | COc1cc(OC)cc(C(=O)c2c[nH]c3ncc(-c4cccc(NS(C)(=O)=O)c4)cc23)c1 [Compound P-1426, N-{3-[3-(3,5-Dimethoxy-benzoyl)-1H-pyrrolo[2,3-b]pyridin-5-yl]-phenyl}-methanesulfonamide] | ≤ 10 | – | – | – | –
16 | O=C(O)/C=C/c1cccc(-c2cnc3[nH]cc(C(=O)c4cc(O)ccc4F)c3c2)c1 [Compound P-0010] | ≤ 10 | ≤ 10 | ≤ 10 | ≤ 10 | –
17 | CS(=O)(=O)c1cccc(-c2ccnc3[nH]cc(C(=O)c4cc(F)ccc4F)c23)c1 [Compound P-0171] | – | ≤ 10 | – | – | –
18 | CS(=O)(=O)c1cccc(-c2cnc3[nH]cc(C(=O)c4c(F)ccc(F)c4F)c3c2)c1 [Compound P-0102, [5-(3-Methanesulfonyl-phenyl)-1H-pyrrolo[2,3-b]pyridin-3-yl]-(2,3,6-trifluoro-phenyl)-methanone] | – | ≤ 10 | ≤ 10 | – | –

Row | SMILES | IC50 (Stk6) [µM] | IC50 (Src) [µM] | IC50 (c-Raf-1) [µM] | IC50 (MAP2K1) [µM] | IC50 (Akt3) [µM]
19 | O=C(c1cc(O)ccc1F)c1c[nH]c2ncc(-c3cccs3)cc12 [Compound P-0032] | ≤ 10 | ≤ 10 | ≤ 10 | – | –
20 | CCCS(=O)(=O)Nc1ccc(F)c(C(=O)c2c[nH]c3ncc(-c4cccnc4)cc23)c1F [Compound P-0088, Propane-1-sulfonic acid [2,4-difluoro-3-(5-pyridin-3-yl-1H-pyrrolo[2,3-b]pyridine-3-carbonyl)-phenyl]-amide] | ≤ 10 | ≤ 10 | ≤ 10 | – | –
21 | COc1cccc(C(=O)c2c[nH]c3ncc(-c4cccc(NC(C)=O)c4)cc23)c1F [Compound P-1336, N-{3-[3-(2-Fluoro-3-methoxy-benzoyl)-1H-pyrrolo[2,3-b]pyridin-5-yl]-phenyl}-acetamide] | ≤ 10 | ≤ 10 | ≤ 10 | – | –
22 | COc1ccc(F)c(C(=O)c2c[nH]c3ncc(-c4cccnc4)cc23)c1 [Compound P-0090] | – | ≤ 10 | ≤ 10 | – | –
23 | Oc1cc(O)cc(Cc2c[nH]c3ncc(-c4ccsc4)cc23)c1 [Compound P-0093] | ≤ 10 | – | – | – | –
24 | Cc1ccc(F)cc1C(=O)c1c[nH]c2ncc(-c3cccc(NS(C)(=O)=O)c3)cc12 [Compound P-0028] | – | ≤ 10 | – | – | –
25 | Cc1ccc(S(=O)(=O)NCc2c[nH]c3nccc(-c4cccc(C#N)c4)c23)cc1 [Compound P-0072] | – | ≤ 10 | – | – | –
26 | OCCOc1ccc(F)c(Cc2c[nH]c3ncc(-c4cccnc4)cc23)c1F [Compound P-1394, 2-[2,4-Difluoro-3-(5-pyridin-3-yl-1H-pyrrolo[2,3-b]pyridin-3-ylmethyl)-phenoxy]-ethanol] | ≤ 10 | ≤ 10 | – | – | –
27 | O=C(c1ccccc1F)c1c[nH]c2ncc(-c3ccsc3)cc12 [Compound P-0134] | – | ≤ 10 | – | – | –
28 | CN(C)S(=O)(=O)Nc1ccc(F)c(Cc2c[nH]c3ncc(-c4cccnc4)cc23)c1F [Compound P-0166] | – | ≤ 10 | ≤ 10 | – | –
29 | O=C(O)/C=C/c1cccc(-c2cnc3[nH]cc(C(=O)c4ccccc4F)c3c2)c1 [Compound P-0033] | ≤ 10 | – | – | – | –
30 | COc1ccc(C(=O)c2c[nH]c3ncc(-c4cccc(/C=C/C(=O)O)c4)cc23)c(Cl)c1 [Compound P-0015] | ≤ 10 | – | ≤ 10 | ≤ 10 | –
31 | O=C(Nc1ccc(Cc2c[nH]c3ncccc23)cc1)Nc1cccc(C(F)(F)F)c1 [Compound P-0262, 1-[4-(1H-Pyrrolo[2,3-b]pyridin-3-ylmethyl)-phenyl]-3-(3-trifluoromethyl-phenyl)-urea] | – | – | ≤ 10 | – | –
32 | CCCS(=O)(=O)Nc1ccc(F)c(C(=O)c2c[nH]c3ncc(OC)cc23)c1F [Compound P-0806, Propane-1-sulfonic acid [2,4-difluoro-3-(5-methoxy-1H-pyrrolo[2,3-b]pyridine-3-carbonyl)-phenyl]-amide] | ≤ 10 | ≤ 10 | ≤ 10 | ≤ 10 | –
33 | OC(c1c(F)ccc(F)c1F)c1c[nH]c2ncc(-c3cccnc3)cc12 (centres unmarked) [Compound P-0101] | ≤ 10 | – | – | – | –
34 | Cc1c(O)cccc1C(=O)c1c[nH]c2ncc(-c3cccs3)cc12 [Compound P-0114, (3-Hydroxy-2-methyl-phenyl)-(5-thiophen-2-yl-1H-pyrrolo[2,3b]pyridin-3-yl)-methanone] | – | ≤ 10 | ≤ 10 | – | ≤ 10
35 | CCCCNC(=O)Nc1ccc(F)c(C(=O)c2c[nH]c3ncc(-c4cccnc4)cc23)c1F [Compound P-1318, 1-Butyl-3-[2,4-difluoro-3-(5-pyridin-3-yl-1H-pyrrolo[2,3-b]pyridine-3-carbonyl)-phenyl]-urea] | – | ≤ 10 | ≤ 10 | – | –
